According to patent EP3900722A1, “COMBINATION OF FINERENONE AND PECAVAPTAN FOR THE TREATMENT AND/OR PREVENTION OF CARDIOVASCULAR AND/OR RENAL DISEASES” (Bayer AG, priority 2020, dated 2021):

Test system: awake Wistar rats with activated renin-angiotensin-aldosterone system
Assay: In vivo assay for detecting natriuretic activity in conscious rats with activated RAAS
Design: Volume urine / body weight: unit not given here
Conditions: 8 hours after oral administration, metabolic cages, 3 mg/kg Finerenone, 0.3 mg/kg Pecavaptan, or both combined, mean ± SD, n = 7-8; for Urinary Na+/K+ concentration ratio: calculated from urinary sodium and potassium concentrations
Description: Wistar rats (ca. 250-500 g body weight) were kept with free access to feed (Altromin) and drinking water. […] This sodium-reduced feed causes an activation of the RAAS in the animals during the 3 days run-in phase and therefore mimics a neuroendocrine activation which is characteristic for cardiorenal diseases. During the test, the animals were housed singly in metabolic cages suitable for rats of this weight class (Tecniplast Deutschland GmbH, D-82383 Hohenpeissenberg) with free access to reduced-salt feed and drinking water for up to 24 hours. At the start of the test, the substance to be tested was administered by means of gavage in a volume of 2-3 ml/kg of body weight of a suitable solvent ('Adalat Placebo': 85.8% PEG400, 5.3% glycerol, 8.9% water). Control animals received only solvent ('Adalat Placebo' or solvent in table 2 below). Controls and substance tests were carried out in parallel on the same day. Control groups and substance-dose groups each consisted of 7 to 8 animals. During the test, the urine excreted by the animals was continuously collected in a receiver on the base of the cage. The urine volume per collection time was determined separately for each animal, and the concentration of the sodium and potassium ions excreted in the urine was measured by standard methods of flame photometry by a clinical-chemical analyzer system (ADVIA 2400, Siemens). The sodium/potassium ratio was calculated on the basis of the individual urinary sodium and potassium concentrations. The measurement intervals were typically the period up to 8 hours after the start of the test (day interval) or up to 24 hours after the start of the test (day and night interval).
In this comparison, four different administrations were performed: Group A received the solvent (Adalat Placebo) only. This group serves as control group. Group B received finerenone only. It serves to detect the effect of the monotherapy with finerenone. Group C received pecavaptan only. It serves to detect the effect of the monotherapy with pecavaptan. Group D received finerenone and pecavaptan in combination. It serves to detect the effect of the combined therapy with finerenone and pecavaptan (combination according to the invention). After the treatment, the urinary volume, urinary sodium and potassium concentrations were measured. Based on this measurement the sodium/potassium ratio was calculated. Table 2: Measured data (mean values ± standard deviation [SD]) of urinary volume, urinary potassium concentration (K+), urinary sodium concentration (Na+), and the resulting urinary sodium / potassium concentration ratio from awake Wistar rats with activated renin-angiotensin-aldosterone system (n = 7-8 animals per group), which were examined according to the 'assessment of the physiological efficacy' for 8 hours after oral administration of the substances in metabolic cages.

| Compound | Urinary K+ concentration [mmol] | Urinary Na+ concentration [mmol] | Volume urine / body weight | Urinary Na+/K+ concentration ratio | Urinary Na+/K+ concentration ratio (listed as finerenone) | Urinary K+ concentration (listed as finerenone) | Urinary Na+ concentration (listed as finerenone) | Volume urine / body weight (listed as finerenone) | Urinary Na+/K+ concentration ratio (listed as pecavaptan) | Urinary K+ concentration (listed as pecavaptan) | Urinary Na+ concentration (listed as pecavaptan) | Volume urine / body weight (listed as pecavaptan) |
| --- | --- | --- | --- | --- | --- | --- | --- | --- | --- | --- | --- | --- |
| CCOc1ncc(C)c2c1[C@H](c1ccc(C#N)cc1OC)C(C(N)=O)=C(C)N2 [Finerenone, (S)-4-(4-cyano-2-methoxyphenyl)-5-ethoxy-2,8-dimethyl-1,4-dihydro-1,6-naphthyridin-3-carboxamide] | 0.84 ± 0.04 | 0.24 ± 0.03 | 12.069 ±0.563 | 0.283 ±0.031 | increase | no influence | increase | no influence | – | – | – | – |
| C[C@H](O)c1nc(Cn2nc(-c3ccc(Cl)cc3)n(C[C@H](O)C(F)(F)F)c2=O)nn1-c1cccc(Cl)c1 [Pecavaptan, 5-(4-chlorophenyl)-2-({1-(3-chlorophenyl)-5-[(1S)-1-hydroxyethyl]-1H-1,2,4-triazol-3-yl}methyl)-4-[(2S)-3,3,3-trifluoro-2-hydroxypropyl]-2,4-dihydro-3H-1,2,4-triazol-3-one] | 1.35 ± 0.08 | 0.72 ± 0.11 | 80.070 ±9.661 | 0.534 ±0.074 | – | – | – | – | increased | increases | increases | increases |
